The values that follow come from ChEMBL document CHEMBL4425158, “Synthesis, structure-activity relationships and biological evaluation of 4,5,6,7-tetrahydropyrazolopyrazines as metabotropic glutamate receptor 5 negative allosteric modulators” (Bioorg Med Chem Lett, 2016).

Converted amounts (≈) assume the structure as drawn. A value given as a limit tells only on which side of the number the result lay.

Series [1] in a line: Aqueous solubility of the compound at pH 7.4. The class given is physicochemical.
Series [2] in a line: Aqueous solubility of the compound at pH 1.2. The class given is physicochemical.
Series [3] can be described thus: Metabolic stability in rat liver microsomes assessed as compound remaining at 1 uM after 30 mins in presence of NADPH by LC/MS/MS analysis. Conditions: read-out: Stability. It counts as ADME, Microsome. (In general: Microsomes from liver hold many membrane-bound enzymes, among them those of drug oxidation.)
The target of the next series is T1, Cytochrome P450 2A6 (Homo sapiens, UniProt P11509).
T1 sequence (P11509 whole entry): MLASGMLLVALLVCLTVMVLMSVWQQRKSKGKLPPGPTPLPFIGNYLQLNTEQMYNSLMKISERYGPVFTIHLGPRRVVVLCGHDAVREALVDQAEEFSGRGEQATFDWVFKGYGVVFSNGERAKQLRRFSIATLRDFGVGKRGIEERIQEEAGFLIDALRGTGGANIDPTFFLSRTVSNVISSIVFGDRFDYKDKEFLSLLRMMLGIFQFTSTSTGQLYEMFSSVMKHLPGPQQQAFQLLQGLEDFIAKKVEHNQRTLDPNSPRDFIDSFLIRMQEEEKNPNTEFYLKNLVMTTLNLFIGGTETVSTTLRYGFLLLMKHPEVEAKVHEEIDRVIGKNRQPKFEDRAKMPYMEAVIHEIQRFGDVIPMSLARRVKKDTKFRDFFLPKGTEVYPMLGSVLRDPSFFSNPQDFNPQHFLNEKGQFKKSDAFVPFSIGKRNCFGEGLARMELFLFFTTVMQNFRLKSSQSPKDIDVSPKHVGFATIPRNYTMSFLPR
As to the kind of experiment: Inhibition of CYP2A6 in human liver microsomes using coumarin as substrate after 10 mins in presence of NADPH by LC/MS/MS analysis. The class given is ADME.

For a further series, the target named is T2, Cytochrome P450 2C8 (Homo sapiens, UniProt P10632).
T2 sequence (P10632 whole entry): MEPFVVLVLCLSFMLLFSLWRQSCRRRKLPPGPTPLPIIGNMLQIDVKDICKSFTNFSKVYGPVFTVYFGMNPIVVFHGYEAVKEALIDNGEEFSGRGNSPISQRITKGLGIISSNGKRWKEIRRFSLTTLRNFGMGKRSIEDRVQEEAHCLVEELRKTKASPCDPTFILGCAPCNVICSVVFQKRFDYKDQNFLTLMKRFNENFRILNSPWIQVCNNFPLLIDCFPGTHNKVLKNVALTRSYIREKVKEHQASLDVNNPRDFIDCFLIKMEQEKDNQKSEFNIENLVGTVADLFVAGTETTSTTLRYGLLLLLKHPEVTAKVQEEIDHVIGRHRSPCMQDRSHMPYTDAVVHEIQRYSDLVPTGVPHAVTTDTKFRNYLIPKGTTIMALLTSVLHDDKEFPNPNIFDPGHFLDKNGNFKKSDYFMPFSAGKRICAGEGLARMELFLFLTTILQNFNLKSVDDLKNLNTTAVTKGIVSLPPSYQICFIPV
As to the kind of experiment: Inhibition of CYP2C8 in human liver microsomes using amodiaquin as substrate after 10 mins in presence of NADPH by LC/MS/MS analysis. It counts as ADME.

For a further series, the target named is Cytochrome P450 2C9 (Homo sapiens, UniProt P11712). As to the kind of experiment: Inhibition of CYP2C9 in human liver microsomes using diclofenac as substrate after 10 mins in presence of NADPH by LC/MS/MS analysis. It counts as ADME.
For the next series, the target named is Cytochrome P450 2C19 (Homo sapiens, UniProt P33261). As to the kind of experiment: Inhibition of CYP2C19 in human liver microsomes using (S)-mephenytoin as substrate after 10 mins in presence of NADPH by LC/MS/MS analysis. It counts as ADME.
The next series has as its target Cytochrome P450 2D6 (Homo sapiens, UniProt P10635). As to the kind of experiment: Inhibition of CYP2D6 in human liver microsomes using bufuralol as substrate after 10 mins in presence of NADPH by LC/MS/MS analysis. It counts as ADME.
Series [4] is described as follows: Permeability of the compound at pH 7.4 by PAMPA. It counts as ADME. Conditions: read-out: permeability. In general terms: PAMPA measures passive passage across an artificial lipid membrane.
The target in series [5] is Voltage-gated inwardly rectifying potassium channel KCNH2 (Homo sapiens, UniProt Q12809). As to the kind of experiment: Inhibition of human ERG.
Series [6] can be described thus: Cmax in rat plasma at 10 mg/kg, po after 15 mins to 24 hrs. It counts as ADME, organism-based. More on the design: dose 10 mg/kg, route oral.
Series [7] is described as follows: Oral bioavailability in rat plasma at 10 mg/kg, after 15 mins to 24 hrs. The class given is ADME, organism-based.
Series [8] can be described thus: Plasma concentration in ICR mouse at 30 mg/kg, po after 1 hr by LC/MS/MS analysis. The class given is ADME, organism-based.
Series [9] is described as follows: Drug uptake in ICR mouse brain at 30 mg/kg, po after 1 hr by LC/MS/MS analysis. The class given is ADME, organism-based. Conditions: read-out: Drug uptake.

Chain of Cytochrome P450 2C9 (P11712 whole entry): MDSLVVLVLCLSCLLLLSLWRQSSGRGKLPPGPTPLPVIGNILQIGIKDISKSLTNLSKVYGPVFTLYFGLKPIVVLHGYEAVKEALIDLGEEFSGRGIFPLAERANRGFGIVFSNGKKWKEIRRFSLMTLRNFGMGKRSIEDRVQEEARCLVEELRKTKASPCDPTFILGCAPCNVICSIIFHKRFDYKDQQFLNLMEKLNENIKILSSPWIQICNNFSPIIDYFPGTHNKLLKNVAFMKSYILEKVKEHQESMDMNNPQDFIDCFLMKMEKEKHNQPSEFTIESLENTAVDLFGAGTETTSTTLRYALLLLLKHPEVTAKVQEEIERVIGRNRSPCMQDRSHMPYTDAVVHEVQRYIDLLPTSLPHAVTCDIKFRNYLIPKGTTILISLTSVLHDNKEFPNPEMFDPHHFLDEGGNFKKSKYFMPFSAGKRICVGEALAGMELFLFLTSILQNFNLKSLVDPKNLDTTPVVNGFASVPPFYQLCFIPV
Chain of Cytochrome P450 2D6 (P10635 whole entry): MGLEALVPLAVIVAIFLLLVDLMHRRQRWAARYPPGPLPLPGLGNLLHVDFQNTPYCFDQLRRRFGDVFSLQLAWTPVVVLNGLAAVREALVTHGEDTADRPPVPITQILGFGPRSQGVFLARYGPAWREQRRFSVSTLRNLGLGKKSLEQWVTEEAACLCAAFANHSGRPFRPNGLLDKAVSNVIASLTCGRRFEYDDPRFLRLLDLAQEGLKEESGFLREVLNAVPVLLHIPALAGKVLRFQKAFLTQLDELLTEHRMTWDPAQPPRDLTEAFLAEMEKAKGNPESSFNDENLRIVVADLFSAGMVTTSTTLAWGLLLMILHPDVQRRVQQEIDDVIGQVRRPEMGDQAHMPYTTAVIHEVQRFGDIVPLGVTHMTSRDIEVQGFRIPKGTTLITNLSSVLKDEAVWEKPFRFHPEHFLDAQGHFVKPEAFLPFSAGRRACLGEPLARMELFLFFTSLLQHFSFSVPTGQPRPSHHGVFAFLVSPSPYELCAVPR
Chain of Voltage-gated inwardly rectifying potassium channel KCNH2 (Q12809 whole entry): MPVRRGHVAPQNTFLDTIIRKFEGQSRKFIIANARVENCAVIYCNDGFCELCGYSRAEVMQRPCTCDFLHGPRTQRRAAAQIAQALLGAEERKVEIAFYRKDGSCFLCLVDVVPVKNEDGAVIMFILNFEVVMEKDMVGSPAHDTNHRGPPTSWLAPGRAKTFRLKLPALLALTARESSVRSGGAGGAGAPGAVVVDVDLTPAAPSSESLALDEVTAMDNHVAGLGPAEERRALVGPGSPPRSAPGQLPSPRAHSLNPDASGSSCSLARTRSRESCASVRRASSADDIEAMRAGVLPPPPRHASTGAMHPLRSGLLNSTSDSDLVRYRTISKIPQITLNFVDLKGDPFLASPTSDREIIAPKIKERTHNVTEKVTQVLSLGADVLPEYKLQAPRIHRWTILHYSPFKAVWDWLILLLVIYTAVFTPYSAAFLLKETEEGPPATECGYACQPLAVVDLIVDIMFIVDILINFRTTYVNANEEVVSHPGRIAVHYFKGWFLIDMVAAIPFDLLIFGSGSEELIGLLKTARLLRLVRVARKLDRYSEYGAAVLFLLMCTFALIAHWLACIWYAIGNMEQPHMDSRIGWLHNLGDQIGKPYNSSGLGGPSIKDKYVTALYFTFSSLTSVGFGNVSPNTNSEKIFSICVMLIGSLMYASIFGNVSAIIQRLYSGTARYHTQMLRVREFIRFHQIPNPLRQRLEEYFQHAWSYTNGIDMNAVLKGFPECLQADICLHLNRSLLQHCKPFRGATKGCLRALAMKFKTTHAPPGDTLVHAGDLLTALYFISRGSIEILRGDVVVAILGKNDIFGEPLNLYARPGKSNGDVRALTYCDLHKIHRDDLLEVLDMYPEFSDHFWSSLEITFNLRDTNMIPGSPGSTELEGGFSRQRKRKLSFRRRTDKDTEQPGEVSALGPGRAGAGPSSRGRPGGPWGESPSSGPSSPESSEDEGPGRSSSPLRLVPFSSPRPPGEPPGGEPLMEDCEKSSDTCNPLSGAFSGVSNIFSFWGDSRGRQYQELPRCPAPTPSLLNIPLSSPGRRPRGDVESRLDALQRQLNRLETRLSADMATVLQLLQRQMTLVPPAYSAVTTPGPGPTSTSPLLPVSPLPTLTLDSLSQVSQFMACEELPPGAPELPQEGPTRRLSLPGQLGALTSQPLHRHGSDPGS
Chain of Cytochrome P450 2C19 (P33261 whole entry): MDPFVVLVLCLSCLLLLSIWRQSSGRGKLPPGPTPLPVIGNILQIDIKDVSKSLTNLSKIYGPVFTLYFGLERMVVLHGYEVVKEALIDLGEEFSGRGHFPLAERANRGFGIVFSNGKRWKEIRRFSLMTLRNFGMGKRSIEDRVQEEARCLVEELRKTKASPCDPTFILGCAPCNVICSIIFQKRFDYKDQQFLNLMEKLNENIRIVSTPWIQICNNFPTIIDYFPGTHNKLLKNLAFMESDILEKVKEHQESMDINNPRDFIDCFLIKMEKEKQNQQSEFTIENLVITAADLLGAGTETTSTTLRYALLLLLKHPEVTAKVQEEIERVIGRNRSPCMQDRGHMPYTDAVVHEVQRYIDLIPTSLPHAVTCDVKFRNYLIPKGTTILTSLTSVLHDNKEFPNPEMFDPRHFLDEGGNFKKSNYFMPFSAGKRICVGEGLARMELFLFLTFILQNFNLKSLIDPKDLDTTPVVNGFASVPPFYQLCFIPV

A word on the solubility: it is the dissolved amount per volume that the medium holds. Low readings indicate little dissolved substance, high ones much dissolved substance. Broadly, the IC50 is the concentration needed to halve the response being measured. Usually Cmax stands for the peak of the concentration-time curve. A word on the bioavailability: it is dose-corrected exposure relative to a reference, in per cent. Lower therefore signals little systemic uptake. In the case of `O=C(c1cc(F)cc(Cl)c1)N1CCn2nc(-c3ccc(F)cn3)cc2C1`, the results for the solubility in series [1] and in [2] were 7 µg/mL (≈ 18.7 µM) and 79 µg/mL (≈ 211 µM), respectively. Besides, the remaining at 0.5 h, 1 µM in [3] was over 97%. Besides, the IC50 at Cytochrome P450 2A6 is over 40 µM; on Cytochrome P450 2C8 it was over 40 µM; on Cytochrome P450 2C9, over 40 µM; on Cytochrome P450 2C19, over 40 µM; on Cytochrome P450 2D6, over 40 µM; in [5] it was 15 µM. Also, in series [4], the Papp stood at 37 ×10⁻⁶ cm/s. Besides, the Cmax in series [6] stood at 2930 ng/mL. The bioavailability in [7] was determined as 95%. The concentration at 1 h in [8] came out at 21.4 µM; in [9], 29.5 µM.
